Assay results: publication PMC1976805, “Preclinical pharmacokinetics of benznidazole” (British Journal of Cancer, 1984)
Read-outs that look alike come from different tables or passages of the source.

What was measured:
Aqueous solubility = type: physicochemical
KHT tumour = conditions: mice, cited from earlier work
[1] = Plasma pharmacokinetics in man (literature); type: in vivo; conditions: oral doses of 6-20 mg kg-1, extrapolated from dog and literature human data
[2] = Tissue penetration in dogs bearing spontaneous neoplasms; type: in vivo, dog; conditions: for Kp: dog
From the text: Br. J. Cancer (1984), 50, 291-303 Preclinical pharmacokinetics of benznidazole P. Workman', R.A.S. White2, M.I. Walton', L.N. Owen2* & P.R. Twentyman' 1MRC Clinical Oncology and Radiotherapeutics Unit, MRC Centre, Hills Road, Cambridge CB2 2QH, and 2Department of Clinical Veterinary Medicine, University of Cambridge, Madingley Road, Cambridge CB3 OES, UK. […] We have investigated the detailed pharmacokinetics of benznidazole in mice, dogs and sheep to provide a data base for the estimation of doses required for chemosensitization in man. Pharmacokinetic behaviour was linear except at high doses in mice. Absorption was fairly rapid and bioavailability was complete following both i.p. administration in mice and oral administration in dogs. Elimination t4 values were longer than for MISO, being 90 min in mice, 4-5 h in sheep and 9-11 h in dogs. At doses giving linear kinetics, peak whole plasma concentrations per administered mgkg-1 were 0.75 jigml-1 for the i.p. route in mice and 1.8jugmlP' for the oral route in dogs. Though between 39 and 59% of plasma benznidazole was bound to protein, tissue penetration was generally good. Tissue/whole plasma ratios ranged from 59-99% for transplantable mouse tumours and from 14-70% for spontaneous dog neoplasms. Nervous tissue penetration was similar to that in tumours: brain/whole plasma ratios averaged between 61 and 76% in mice and 42% in dogs, while peripheral nerve/whole plasma ratios in dogs averaged 74%. Mean liver/whole plasma ratios were 42% and 71% in BALB/c and C3H/He mouse strains respectively. Only -5% of the administered dose was excreted unchanged in the urine, indicating the likelihood of extensive metabolism. […] Enhancement of CCNU response is likely to require circulating benznidazole concentrations of 10-30 pgml-1 and we predict that these will be obtained with oral doses of 6-20 mgkg- 1 in man. […] This enhancement, or chemosensitization, is usually greater than that seen in dose-limiting normal tissues, resulting in an improved therapeutic index. Because of the relatively high doses of MISO usually required for chemosensitization in mice (see above refs), and also because of its neurotoxicity in man (Dische et al., 1977), we have been interested in finding an improved chemosensitizer. […] The lipophilic ana- logue benznidazole (N-benzyl-(2-nitroimidazolyl) acetamide, Ro 07-1051; Radanil; Roche), the structure of which is shown in Figure 1, was selected for detailed study because of its ability to *Present address: Animal Health Trust, Small Animals Centre, Lanwades Park, Kennett, Newmarket, Suffolk CB8 7PN, UK. Correspondence: P. Workman. […] These findings have been confirmed independently by Siemann et al. (1983). Although benznidazole is used quite widely in South America to treat patients with the trypanosomal infection Chagas' disease or with mucotaneous Leishmaniasis (Barclay et al., 1978; Cerisola et al., 1978; Coura et al., 1978; Fava et al., 1978), apart from our preliminary studies (White et al., 1982) the only published data on its pharmaco- kinetics are for human plasma concentrations measured by polarography (Raaflub & Ziegler, 1979; Raaflub, 1980). Here we describe the pharmacokinetics of benznidazole in the mouse, sheep and dog, as determined by high-performance liquid chromatography (HPLC). […]

[3] = Penetration into EMT6 and KHT mouse tumours; type: in vivo; conditions: for steady-state concentration in tumour: multiple dose schedule
From the text: Br. J. Cancer (1984), 50, 291-303 Preclinical pharmacokinetics of benznidazole P. Workman', R.A.S. White2, M.I. Walton', L.N. Owen2* & P.R. Twentyman' 1MRC Clinical Oncology and Radiotherapeutics Unit, MRC Centre, Hills Road, Cambridge CB2 2QH, and 2Department of Clinical Veterinary Medicine, University of Cambridge, Madingley Road, Cambridge CB3 OES, UK. […] We have investigated the detailed pharmacokinetics of benznidazole in mice, dogs and sheep to provide a data base for the estimation of doses required for chemosensitization in man. Pharmacokinetic behaviour was linear except at high doses in mice. Absorption was fairly rapid and bioavailability was complete following both i.p. administration in mice and oral administration in dogs. Elimination t4 values were longer than for MISO, being 90 min in mice, 4-5 h in sheep and 9-11 h in dogs. At doses giving linear kinetics, peak whole plasma concentrations per administered mgkg-1 were 0.75 jigml-1 for the i.p. route in mice and 1.8jugmlP' for the oral route in dogs. Though between 39 and 59% of plasma benznidazole was bound to protein, tissue penetration was generally good. Tissue/whole plasma ratios ranged from 59-99% for transplantable mouse tumours and from 14-70% for spontaneous dog neoplasms. Nervous tissue penetration was similar to that in tumours: brain/whole plasma ratios averaged between 61 and 76% in mice and 42% in dogs, while peripheral nerve/whole plasma ratios in dogs averaged 74%. Mean liver/whole plasma ratios were 42% and 71% in BALB/c and C3H/He mouse strains respectively. Only -5% of the administered dose was excreted unchanged in the urine, indicating the likelihood of extensive metabolism. […] Enhancement of CCNU response is likely to require circulating benznidazole concentrations of 10-30 pgml-1 and we predict that these will be obtained with oral doses of 6-20 mgkg- 1 in man. […] This enhancement, or chemosensitization, is usually greater than that seen in dose-limiting normal tissues, resulting in an improved therapeutic index. Because of the relatively high doses of MISO usually required for chemosensitization in mice (see above refs), and also because of its neurotoxicity in man (Dische et al., 1977), we have been interested in finding an improved chemosensitizer. […] The lipophilic ana- logue benznidazole (N-benzyl-(2-nitroimidazolyl) acetamide, Ro 07-1051; Radanil; Roche), the structure of which is shown in Figure 1, was selected for detailed study because of its ability to *Present address: Animal Health Trust, Small Animals Centre, Lanwades Park, Kennett, Newmarket, Suffolk CB8 7PN, UK. Correspondence: P. Workman. […] These findings have been confirmed independently by Siemann et al. (1983). Although benznidazole is used quite widely in South America to treat patients with the trypanosomal infection Chagas' disease or with mucotaneous Leishmaniasis (Barclay et al., 1978; Cerisola et al., 1978; Coura et al., 1978; Fava et al., 1978), apart from our preliminary studies (White et al., 1982) the only published data on its pharmaco- kinetics are for human plasma concentrations measured by polarography (Raaflub & Ziegler, 1979; Raaflub, 1980). Here we describe the pharmacokinetics of benznidazole in the mouse, sheep and dog, as determined by high-performance liquid chromatography (HPLC). […] The Macmillan Press Ltd., 1984 292 P. WORKMAN et al. particularly on plasma and tumour concentrations, have been used as a basis for the estimation of the benznidazole doses required in a Phase I trial of benznidazole plus CCNU, at present ongoing in our Unit. Materials and methods Animals and tumours Adult inbred male BALB/c mice were obtained from OLAC (Southern) Ltd. (Bicester, UK) and adult inbred C3H/He mice of both sexes from OLAC and our own breeding colony. Mice were housed in plastic cages on sawdust bedding made from soft white woods, and allowed laboratory chow and water ad lib. They were used at 20-35 g body wt.

human plasma = conditions: cited from earlier work
[4] = Maximum tolerated dose in mice; conditions: male, mouse, in vivo, ip; BALB/c mice, i.p., highest dose used; read-out: maximum tolerated dose (about)
From the text: (§1) Br. J. Cancer (1984), 50, 291-303 Preclinical pharmacokinetics of benznidazole P. Workman', R.A.S. White2, M.I. Walton', L.N. Owen2* & P.R. Twentyman' 1MRC Clinical Oncology and Radiotherapeutics Unit, MRC Centre, Hills Road, Cambridge CB2 2QH, and 2Department of Clinical Veterinary Medicine, University of Cambridge, Madingley Road, Cambridge CB3 OES, UK. […] We have investigated the detailed pharmacokinetics of benznidazole in mice, dogs and sheep to provide a data base for the estimation of doses required for chemosensitization in man. Pharmacokinetic behaviour was linear except at high doses in mice. Absorption was fairly rapid and bioavailability was complete following both i.p. administration in mice and oral administration in dogs. […] Although benznidazole is used quite widely in South America to treat patients with the trypanosomal infection Chagas' disease or with mucotaneous Leishmaniasis (Barclay et al., 1978; Cerisola et al., 1978; Coura et al., 1978; Fava et al., 1978), apart from our preliminary studies (White et al., 1982) the only published data on its pharmaco- kinetics are for human plasma concentrations measured by polarography (Raaflub & Ziegler, 1979; Raaflub, 1980). Here we describe the pharmacokinetics of benznidazole in the mouse, sheep and dog, as determined by high-performance liquid chromatography (HPLC). […]

plasma proteins = experiment: Plasma protein binding in sheep (plasma ultrafiltrate); type: in vivo
From the text: as §1

[5] = benznidazole 78 mg kg-1 i.p., ref Twentyman & Workman, 1983, Siemann et al.
[6] = EMT6 flank tumour, BALB/c, 45 min after 650 mg kg-1 i.p.

aqueous solubility (Aqueous solubility): low aqueous solubility
predicted circulating (peak whole plasma) concentrations [1]: 10-30 micrograms ml-1
tissue/whole plasma ratio, overall mean + s.e. ([2]; 24 neoplastic tissue samples (excluding cyst fluid)): 50+3%
absolute neoplastic tissue concentration, overall mean+s.e. ([2]; 24 samples, 1.67-4.5 h, normalised to 12.5 mg kg-1 oral): 5.6 +0.5 µg g-1
Kp ([2]; liver/whole plasma, first of the two values obtained, read-out: liver/whole plasma ratio): 0.14
Kp ([2]; liver/whole plasma, second of the two values obtained, read-out: liver/whole plasma ratio): 0.51
Kp ([2]; tumour (spontaneous neoplastic tissue), po, neoplastic tissues, 12.5 (one dog 25) mg kg-1 oral, 1.67-4.5 h, read-out: tissue/whole plasma ratios, range): 0.14 to 0.7
concentration in tumour homogenate (Figure 2 chromatogram) [3, 6]: 13500 ng/mL
tumour concentration (Figure 2 chromatogram) [3, 6]: 54 µg/g
tumour/whole plasma ratio (s.e., n=5) ([3]; EMT6 flank, experiment b, 650 mg kg-1 i.p., 45 min): 58+8%
tumour/whole plasma ratio (s.e., n=5) ([3]; EMT6 flank, experiment b, 650 mg kg-1 i.p., 75 min): 70 + 5%
tumour/whole plasma ratio (s.e., n=5) ([3]; EMT6 flank, experiment b, 650 mg kg-1 i.p., 105 min): 97 + 4%
tumour/whole plasma ratio (s.e., n=5) ([3]; EMT6 flank, experiment b, 650 mg kg-1 i.p., 135 min): 88 + 9%
tumour/whole plasma ratio (% ± s.e.) ([3]; EMT6 i.d. flank, BALB/c, Exp 2 (b): 650 mg kg-1 i.p., 45-135 min, n=20): 79 + 5%
peak tumour level (s.e., n=4) ([3]; EMT6 i.d. flank, first experiment, 650 mg kg-1 i.p. in arachis oil): 55+11 µg g-1
tumour/whole plasma ratio (% ± s.e.) ([3]; EMT6 i.m. leg, BALB/c, Exp 1 (c): 650 mg kg-1 i.p., 45-135 min, n=20): 75 + 5%
tumour/whole plasma ratio (% ± s.e.) ([3]; EMT6 i.m. leg, BALB/c, Exp 2 (d): 650 mg kg-1 i.p., 45-135 min, n=20): 74+6%
peak tumour level (s.e., n=5) ([3]; EMT6 i.m. leg, first experiment, 650 mg kg-1 i.p.): 130+7 µg g-1
peak tumour level (s.e., n=5) ([3]; EMT6 i.m. leg, second experiment, 650 mg kg-1 i.p.): 84+14 µg g-1
tumour/whole plasma ratio (% ± s.e.) ([3]; KHT i.m. leg, C3H/He, Exp 1 (e): 60 mg kg-1 i.p. priming + 15 hourly doses of 15 mg kg-1, 1-16 h, n=25): 99+3%
tumour/whole plasma ratio (% ± s.e.) ([3]; KHT i.m. leg, C3H/He, Exp 2 (f): dosing as e omitting the dose at 1 h, 2-16 h, n=13): 90+ 3%
tumour/whole plasma ratio (s.e., n=5) ([3]; KHT tumour, 1 h after single i.p. dose of 78 mg kg-1): 88+5%
tumour/whole plasma ratio (s.e., n=5) ([3]; KHT tumour, 1 h after single i.p. dose of 260 mg kg-1): 88+2%
steady-state concentration in tumour ([3]; KHT tumour, first experiment): 26 µg/g
steady-state concentration in tumour ([3]; KHT tumour, second experiment): 32 µg/g
range of mean plasma concentrations ([3]; Table II experiment a): 49 to 99 µg/mL
range of mean plasma concentrations ([3]; Table II experiment b): 77 to 121 µg/mL
range of mean plasma concentrations ([3]; Table II experiment c): 100 to 130 µg/mL
range of mean plasma concentrations ([3]; Table II experiment d): 74 to 133 µg/mL
range of mean plasma concentrations ([3]; Table II experiment e (multiple dose)): 25 to 47 µg/mL
range of mean plasma concentrations ([3]; Table II experiment f (multiple dose)): 12 to 29 µg/mL
Kp ([3]; male, BALB/c, mouse, EMT6 flank tumour / whole plasma, EMT6 flank tumours, read-out: overall tissue/whole plasma ratio): 0.69
Kp ([3]; male, mouse, tumour (EMT6, intradermal, intraperitoneal), EMT6 i.d. flank, BALB/c, Exp 1 (a): 650 mg kg-1 i.p. single dose (arachis oil), 45-135 min, n=16, read-out: tumour/whole plasma ratio (% ± s.e.)): 0.59
peak tumour concentration that would be produced ([3]; mice, 13 mg kg-1 i.p.): ~9 µg/g
tumour concentration ([3]; mice, 78 mg kg-1 i.p., discussion summary): 26 µg/g
Kp ([3]; tumour (KHT and EMT6), transplantable mouse tumours (KHT and EMT6), read-out: tissue/whole plasma ratios, range): 0.59 to 0.99
Kp ([3]; tumour / whole plasma, transplantable mouse tumours, read-out: steady-state tumour/whole plasma ratio (about)): ~0.9
fraction unbound (plasma proteins; male, Clun Forest/Border Leicester cross, plasma, iv, sheep 2, 4 mg kg-1 i.v., read-out: protein binding (s.e., n=6) (converted)): 0.58
binding to plasma proteins (plasma proteins; sheep, discussion summary): 42%
Structure (SMILES): O=C(Cn1ccnc1[N+](=O)[O-])NCc1ccccc1 [benznidazole, N-benzyl-(2-nitroimidazolyl) acetamide]
enhancement factor of CCNU response in normal tissues (KHT tumour; [5]): 1.2-1.4
enhancement factor of tumour response to CCNU (KHT tumour; [5]): 1.5-2
i.p. dose giving clear enhancement of KHT tumour response to CCNU (at least as low as) (KHT tumour; ref Workman & Twentyman, 1982): ≤ 13 mg/kg
binding to plasma proteins (human plasma; ref Raaflub & Ziegler, 1979): 44%
binding to plasma proteins (human plasma; ref Workman & Brown, 1981): 58%
MTD [4]: ~832 mg/kg
